# Test results reported in patent US8865623B2, “Herbicidally active cyclic diones and derivatives thereof, processes for their preparation, compositions, and method of controlling weeds” (Syngenta Limited, priority 2009, dated 2014).
# What was measured:
# Assay type in all cases: in vivo
# [1] = tested on: Echinochloa crus-galli (ECHCG); experiment: Pre-emergence herbicidal activity, glasshouse pot test; details: pre-emergence, evaluated after 13 days; for pest or weed control at 250 g/ha: Echinochloa crus-galli, 312 h, Rate 250 g/ha, read-out: Pre-emergence activity ECHCG (100=total damage to plant; 0=no damage to plant); for ECHCG damage to plant (100=total damage to plant; 0=no damage to plant): rate 250 g/ha
# Summary of the method: (§1)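 Plants in standard-soil pots, glasshouse at 24/16° C, 14 h photoperiod, 65% humidity. Aqueous spray (acetone/water 50:50 formulation, 0.5% Tween 20) applied pre-emergence at day 1 or post-emergence at day 8. Percent damage recorded after 13 days.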
# Lolium perenne (LOLPE) [2] = experiment: as above; details: pre-emergence, evaluated after 13 days; for pest or weed control at 250 g/ha: Lolium perenne, 312 h, Rate 250 g/ha, read-out: Pre-emergence activity LOLPE (100=total damage to plant; 0=no damage to plant); for LOLPE damage to plant (100=total damage to plant; 0=no damage to plant): rate 250 g/ha
# Summary of the method: as §1
# [3] = tested on: Alopecurus myosuroides (ALOMY); experiment: as above; details: pre-emergence, evaluated after 13 days; for pest or weed control at 250 g/ha: Alopecurus myosuroides, 312 h, Rate 250 g/ha, read-out: Pre-emergence activity ALOMY (100=total damage to plant; 0=no damage to plant); for ALOMY damage to plant (100=total damage to plant; 0=no damage to plant): rate 250 g/ha
# Summary of the method: as §1
# Avena fatua (AVEFA) [4] = experiment: as above; details: pre-emergence, evaluated after 13 days; for pest or weed control at 250 g/ha: Avena fatua, 312 h, Rate 250 g/ha, read-out: Pre-emergence activity AVEFA (100=total damage to plant; 0=no damage to plant); for AVEFA damage to plant (100=total damage to plant; 0=no damage to plant): rate 250 g/ha
# Summary of the method: as §1
# [5] = tested on: Echinochloa crus-galli (ECHCG); experiment: Post-emergence herbicidal activity, glasshouse pot test; details: rate 250 g/ha, evaluated after 13 days; for pest or weed control at 250 g/ha: Echinochloa crus-galli, 312 h, read-out: Post-emergence activity ECHCG (100=total damage to plant; 0=no damage to plant)
# Summary of the method: as §1
# Lolium perenne (LOLPE) [6] = experiment: as above; details: rate 250 g/ha, evaluated after 13 days; for pest or weed control at 250 g/ha: Lolium perenne, 312 h, read-out: Post-emergence activity LOLPE (100=total damage to plant; 0=no damage to plant)
# Summary of the method: as §1
# [7] = tested on: Alopecurus myosuroides (ALOMY); experiment: as above; details: rate 250 g/ha, evaluated after 13 days; for pest or weed control at 250 g/ha: Alopecurus myosuroides, 312 h, read-out: Post-emergence activity ALOMY (100=total damage to plant; 0=no damage to plant)
# Summary of the method: as §1
# Avena fatua (AVEFA) [8] = experiment: as above; details: rate 250 g/ha, evaluated after 13 days; for pest or weed control at 250 g/ha: Avena fatua, 312 h, read-out: Post-emergence activity AVEFA (100=total damage to plant; 0=no damage to plant)
# Summary of the method: as §1
SMILES,pest or weed control at 250 g/ha [1],pest or weed control at 250 g/ha (Lolium perenne (LOLPE) [2]),pest or weed control at 250 g/ha [3],pest or weed control at 250 g/ha (Avena fatua (AVEFA) [4]),pest or weed control at 250 g/ha [5],pest or weed control at 250 g/ha (Lolium perenne (LOLPE) [6]),pest or weed control at 250 g/ha [7],pest or weed control at 250 g/ha (Avena fatua (AVEFA) [8]),ECHCG damage to plant (100=total damage to plant; 0=no damage to plant) [1],LOLPE damage to plant (100=total damage to plant; 0=no damage to plant) (Lolium perenne (LOLPE) [2]),ALOMY damage to plant (100=total damage to plant; 0=no damage to plant) [3],AVEFA damage to plant (100=total damage to plant; 0=no damage to plant) (Avena fatua (AVEFA) [4]),ECHCG damage to plant (100=total damage to plant; 0=no damage to plant) [5],LOLPE damage to plant (100=total damage to plant; 0=no damage to plant) (Lolium perenne (LOLPE) [6]),ALOMY damage to plant (100=total damage to plant; 0=no damage to plant) [7],AVEFA damage to plant (100=total damage to plant; 0=no damage to plant) (Avena fatua (AVEFA) [8])
CC1(C)OC(C)(C)C(O)=C(c2cc(Oc3ccc(Cl)c(F)c3)ccc2C2CC2)C1=O [Example A-347],100%,100%,70%,10%,100%,100%,90%,50%,,,,,,,,
CC1(C)OC(C)(C)C(O)=C(c2cc(Oc3ccc(Cl)cc3F)ccc2C2CC2)C1=O [Example A-348],100%,100%,60%,10%,100%,90%,100%,60%,,,,,,,,
CC1(C)OC(C)(C)C(O)=C(c2cc(Oc3ccc(Cl)cc3)ccc2C2CC2)C1=O [Example A-349],100%,90%,40%,10%,100%,80%,60%,0%,,,,,,,,
CC1(C)OC(C)(C)C(O)=C(c2cc(Oc3ccc(Br)cc3F)ccc2C2CC2)C1=O [Example A-350],100%,100%,90%,50%,100%,90%,90%,90%,,,,,,,,
CC1(C)OC(C)(C)C(O)=C(c2cc(Oc3ccc(Br)cc3)ccc2C2CC2)C1=O [Example A-351],100%,90%,60%,10%,100%,100%,90%,10%,,,,,,,,
CC1(C)OC(C)(C)C(O)=C(c2cc(Oc3ccc(Br)cc3Cl)ccc2C2CC2)C1=O [Example A-352],100%,90%,70%,20%,100%,90%,90%,70%,,,,,,,,
CC1(C)OC(C)(C)C(O)=C(c2cc(Oc3ccc(F)cc3)ccc2C2CC2)C1=O [Example A-353],100%,30%,0%,0%,100%,50%,10%,10%,,,,,,,,
CC1(C)OC(C)(C)C(O)=C(c2cc(Oc3ccc(OC(F)(F)F)cc3)ccc2C2CC2)C1=O [Example A-356],100%,100%,90%,70%,100%,100%,100%,100%,,,,,,,,
CC1(C)OC(C)(C)C(O)=C(c2cc(Oc3cc(C#N)ccc3F)ccc2C2CC2)C1=O [Example A-358],90%,90%,60%,0%,100%,60%,90%,60%,,,,,,,,
CC1(C)OC(C)(C)C(O)=C(c2cc(Oc3ncc(Cl)cc3Cl)ccc2C2CC2)C1=O [Example A-364],100%,90%,70%,60%,100%,90%,100%,90%,,,,,,,,
CC1(C)OC(C)(C)C(O)=C(c2cc(Oc3nc4ccccc4s3)ccc2C2CC2)C1=O [Example A-365],100%,90%,80%,0%,100%,100%,100%,10%,,,,,,,,
CC1(C)OC(C)(C)C(O)=C(c2cc(Oc3nc4ccc(Cl)cc4s3)ccc2C2CC2)C1=O [Example A-366],90%,90%,50%,30%,100%,100%,100%,80%,,,,,,,,
CC1(C)OC(C)(C)C(O)=C(c2cc(Oc3nc4ccc(C(F)(F)F)cc4s3)ccc2C2CC2)C1=O [Example A-370],70%,90%,50%,30%,100%,80%,90%,100%,,,,,,,,
CC1(C)OC(C)(C)C(O)=C(c2cc(Oc3cnc4cc(F)ccc4n3)ccc2C2CC2)C1=O [Example A-372],90%,100%,70%,90%,100%,100%,100%,100%,,,,,,,,
COc1ccc2nc(Oc3ccc(C4CC4)c(C4=C(O)C(C)(C)OC(C)(C)C4=O)c3)sc2c1 [Example A-374],90%,100%,50%,30%,100%,100%,90%,90%,,,,,,,,
CC1(C)OC(C)(C)C(O)=C(c2cc(Oc3ncc(Cl)cc3C(F)(F)F)ccc2C2CC2)C1=O [Example A-377],100%,80%,70%,60%,100%,100%,100%,100%,,,,,,,,
CCc1ccc(Oc2ccc(C#N)cc2F)cc1C1=C(OC(C)=O)C(C)(C)OC(C)(C)C1=O [Example P-1],,,,,,,,,100,100,80,20,100,90,80,60
CCC(=O)OC1=C(c2cc(Oc3ccc(C#N)cc3F)ccc2CC)C(=O)C(C)(C)OC1(C)C [Example P-2],,,,,,,,,100,100,80,70,100,90,90,70
CCCC(=O)OC1=C(c2cc(Oc3ccc(C#N)cc3F)ccc2CC)C(=O)C(C)(C)OC1(C)C [Example P-3],,,,,,,,,100,100,70,70,100,90,90,60
